From ChEMBL document CHEMBL1141906, “Novel cyclized Pifithrin-alpha p53 inactivators: synthesis and biological studies” (Bioorg Med Chem Lett, 2005) come the findings set out here.

Structures are written as SMILES.

Tested on in one series: not listed separately
Description: Half reaction time was determined. The settings on record: mouse. Format: ADME.
Usually half-life stands for the time in which the quantity being followed falls by half. Higher therefore signals slow loss. For `Br.COc1ccc(C(=O)C(C#N)n2c3c(sc2=N)CCCC3)cc1` (stereo unspecified), the half-life is 12 h.

Consider `Br.N=c1sc2c(n1CC(=O)c1ccc([N+](=O)[O-])cc1)CCCC2`, for which the half-life was 6 h.

As to `Br.Cc1ccc(C(=O)Cn2c3c(sc2=N)CCCC3)cc1`, the half-life was 4 h.

`Br.N=c1sc2c(n1CC(=O)c1ccc([N+](=O)[O-])cc1)CC1CCCCC1C2` (stereo unspecified): the half-life was 5 h.

Another series is filed under the species Mus musculus. Description: Effective concentration required to protect mouse embryo cortical neurons against a DNA-damaging agent. Format: functional.
Conditions: not given
As a reminder, the EC50 is the concentration that produces a half-maximal response. High values mean a less potent agent, low ones a more potent agent. `O=[N+]([O-])c1ccc(-c2cn3c4c(sc3n2)CCCC4)cc1` returned an EC50 of around 30 nM.

Regarding `Br.COc1ccc(C(=O)C(C#N)n2c3c(sc2=N)CCCC3)cc1` (stereo unspecified), the EC50 is around 30 nM.
